# Experimental data published in a melting point compilation (Tetko et al.; mined from patent text by program, amines drawn as free bases though some values may be those of a salt).
row,melting point,SMILES
1,164 to 165 °C,Cc1c(Cl)ccc([N+](=O)[O-])c1N
2,238 to 240 °C,CC1=C(C(N)=O)C(c2cccc([N+](=O)[O-])c2)n2ccnc2N1 (centres undefined)
3,83 to 85 °C,COc1ccc(OCc2cccc(OCc3ccc4ccccc4n3)c2)cc1
4,268 to 270 °C,N#Cc1ccc(O)cc1C(N)=O
5,42 to 43 °C,O=C1Cc2ccc(C3CCCC3)cc2O1
6,124 to 126 °C,CCCCc1nn(-c2ccccc2C(F)(F)F)c(=O)[nH]1
7,233 to 234 °C,O=C(Nc1cccnc1)N1CCN(c2nccc(-c3ccc(F)cc3)n2)CC1
8,209 to 212 °C,CCCCc1nc2cccc(C(=O)O)c2n1Cc1ccc(-c2cncnc2-c2nnn[nH]2)cc1
9,110 °C,CCC1C(O)C2C3CCC(C(C)CCC(=O)O)C3(C)CCC2C2(C)CCC(O)CC12 (centres undefined)
10,127 to 129 °C,CC1OC(n2cc(F)c(N)nc2=O)C(O)C1OC(=O)c1ccccc1 (centres undefined)
11,246 to 249 °C,CC(=O)Nc1ccc(-c2cccc(C3=NCC(C)(C)c4ccc5c(c43)CC(C)(C)O5)c2)cc1
12,145 to 146 °C,CC(C)=CCc1cc(-c2oc3c(CC=C(C)C)c(O)cc(O)c3c(=O)c2O)ccc1O
13,250 to 252 °C,CCOC(=O)c1cn(CC)c2nc(OC)c(N)cc2c1=O
14,221 °C,CC(=O)N1CCN=C1c1c(Cl)nc(N)nc1Cl
15,231 °C,COc1ccc(-c2cncc(OC3SCC(O)C(O)C3O)c2)c(C)c1 (centres undefined)
16,260 to 262 °C,N#Cc1ccc(-c2cc(-c3ccc(C#N)cc3Cl)on2)cc1
17,108 to 110 °C,CCOC(=O)C(=CN(C)c1cnsn1)C(=O)c1cc(F)c(Cl)nc1Cl
18,136 to 140 °C,N#Cc1cccc(C=CCN2CCc3nc(N)sc3CC2)c1
19,220 to 222 °C,Nc1nc(-c2ccc(Cl)cc2)c(CCC(=O)N2CCS(=O)(=O)CC2)s1
20,187 to 188 °C,COc1cc(OC)c2c(=O)[nH]c(-c3ccc4[nH]c(CN(C)C)cc4c3)nc2c1
21,133 to 135 °C,Cc1c(SCCCSCCn2c([N+](=O)[O-])cnc2C)ccnc1CNc1cnc2ccccc2c1
22,170 °C,O=C(Nc1cccc(Br)n1)Nc1cccc2c1C1CC3(CCN1C2=O)SCCS3 (centres undefined)
23,215 to 217 °C,Cc1ccc(-c2coc3cc(O)cc(O)c3c2=O)cc1
24,> 300 °C,O=C1N=C(c2ccc(C(=O)Cl)cc2)C(c2ccc(C(=O)Cl)cc2)O1 (centres undefined)

row,melting point,SMILES
1,176 to 177 °C,O=C(O)c1cc(Br)no1
2,232 to 234 °C,CC(=O)NC1CCN(c2nc(Nc3ccc(F)cc3F)c(C(=O)O)cc2F)C1 (centres undefined)
3,114 to 115 °C,O=[N+]([O-])c1ccc(CN2CCC(O)CC2)cc1
4,146 °C,CCN1CCc2ccc(Nc3ncc(Cl)c(NCCNS(C)(=O)=O)n3)cc2CC1
5,144 to 146 °C,O=C1N(CCCCl)c2ccccc2C12COc1cc3c(cc12)OCO3 (centres undefined)
6,160 to 161 °C,CC(=O)c1cc(N2CCCC2)ccc1NC(=O)c1ccccc1OCc1ccccc1
7,195 to 197 °C,Nc1ncccc1-c1nc2cc(Br)cnc2n1-c1ccc(CNC(=O)c2ccccc2)cc1
8,167 to 169 °C,COc1ccccc1N1CCN(CCCCN(C(N)=O)C(C)(C)C)CC1
9,227 °C,Cc1ccc(-c2cccc(C(=O)O)n2)cc1C(=O)NCC12CC3CC(CC(C3)C1)C2
10,84 to 85 °C,CC(=Cc1ccc(Cl)cc1Cl)c1ccc(Cl)cc1
11,99 to 100 °C,Cc1cccc(NC(=O)CN2CCN(c3ncccc3C#N)CC2)c1
12,200 to 201 °C,CS(=O)c1cc(C(=O)O)c(Cl)cc1Cl (centres undefined)
13,196 to 198 °C,C[C@H](Nc1ncnc2[nH]cnc12)c1oc2ccc(F)cc2c(=O)c1-c1ccccc1
14,74 to 75 °C,CN1CCN(Cc2ccccc2Cl)C(C(=O)NCCCl)C1 (centres undefined)
15,137 to 139 °C,CSc1nn2c(N3CCNCC3)cc(C)nc2c1S(=O)(=O)c1ccccc1
16,244 to 246 °C,COc1cc2ccc(-c3ccccc3[N+](=O)[O-])cc2cc1OC
17,250 °C,O=C(O)c1oc(-c2ccccc2)cc(=O)c1Cl
18,139 to 140 °C,CC1CN(C(=O)Nc2ccc(Cl)cc2)N=C1c1ccc(Cl)cc1 (centres undefined)
19,> 300 °C,O=C(O)c1cccc(-c2cc3c(Nc4cccc(Cl)c4)ncnc3[nH]2)c1
20,154 to 156 °C,CC(C)c1ccc2c(c1)c(Sc1nc3cc(Cl)ccc3s1)c(CC(C)(C)C(=O)O)n2Cc1ccc(Cl)cc1
21,165 to 167 °C,C=CCN(CC=C)c1nc(NC(=O)Cc2ccccc2)n2oc(=O)nc2n1
22,90 to 91 °C,O=S(=O)(c1ccccc1)c1ccccn1
23,123 to 124 °C,Cc1sc(-c2ccccc2)nc1COc1cc(COc2ncccc2C=O)on1
24,174 to 176 °C,O=C1CCCc2nc3ccccc3c(NCc3ccc(C(F)(F)F)cc3)c21

row,melting point,SMILES
1,236 to 239 °C,CCCCOc1ccc(NC(=O)Nc2ccc(S(N)(=O)=O)cc2)cc1
2,165 to 167 °C,CC(=C(C#N)C(N)=O)c1ccc(Cl)cc1
3,161 to 163 °C,CCNCCNc1ccc(NCCN(CC)CC)c2c1C(=O)c1c(O)ccc(O)c1C2=O
4,> 260 °C,COc1ccc(-n2c(=O)[nH]c3c(C(N)=O)nc(-c4cccc(O)c4)nc32)c(F)c1
5,135 to 136 °C,COC(=O)C(NC(=O)c1cc2cc(Cl)ccc2[nH]1)C(C)c1ccccc1 (centres undefined)
6,52 to 55 °C,Nc1c(Cl)cc(C(O)CNCCCCCCOCCCc2ccc(Br)cn2)cc1Cl (centres undefined)
7,> 300 °C,CC(C)c1ccc(-c2nnc(-c3ccc(C(=O)O)cc3)s2)cc1
8,102 to 104 °C,CCOC(=O)C(CCO)=C(c1cccc(OC)c1)c1cccc(OC)c1
9,45 to 46 °C,Cc1cc(CCCCCCCOc2ccc(C(=O)OC(C)C)cc2)on1
10,102 to 107 °C,CC(C)(C)OC(=O)CC(NC(=O)C1CCCN2C(=O)CCC(NC(=O)c3ccccc3)C(=O)N12)C(=O)COC(=O)c1c(Cl)cccc1Cl (centres undefined)
11,173 to 174 °C,COc1cccc(CNC(=O)c2nc3cccc(OCCO)c3c(=O)[nH]2)c1
12,45 to 50 °C,Cc1ccc(-c2ccc3ccccc3c2)n1CC[C@H]1C[C@H](O)CC(=O)O1 (relative stereo)
13,149 to 151 °C,COc1ccc(C[C@@H]2COc3ccc(OCc4nc5cc(F)ccc5s4)cc3[C@@H]2O)cc1C(=O)O (relative stereo)
14,128 to 130 °C,CC(Cn1ncnn1)n1nnc2cc3c(=O)n(CC(C)(C)O)nnc3cc2c1=O (centres undefined)
15,95 to 97 °C,FC(F)(F)c1cc(CO[C@@H]2CCCN(Cc3nc4ccccc4o3)[C@@H]2c2ccccc2)cc(C(F)(F)F)c1 (relative stereo)
16,188 °C,CCOC(=O)c1ncc2[nH]c3cccc(OCc4cccc(F)c4)c3c2c1COC
17,108 °C,CCCCCCCCC=CCCCCCCCCN1CC(C(=O)OC)N(S(=O)(=O)c2ccc(-c3ccc(Br)cc3)cc2)CC1=O (centres undefined)
18,86 to 96 °C,N#Cc1cc(C#N)c(SC2SCC(O)C(O)C2O)c(C#N)c1 (centres undefined)
19,44 to 45 °C,COCc1ccc(Cl)cc1C(=O)OC
20,190 to 194 °C,O=C(NC(=O)N1CCOCC1)c1cccc(-c2noc(-c3ccccc3F)n2)c1
21,150 to 151 °C,COc1cc(OC)c(CN2CCc3cc(O)c(OC)cc3C2)c(OC)c1
22,98 to 100 °C,O=S(=O)(Nc1ccccc1)c1cccc(Br)c1
23,175 to 180 °C,COCC(=O)Nc1nc(NC(=O)COC)nc(NC2CC2)n1
24,101 to 102 °C,CCOC(=O)c1cccc(-c2nccc(OCCc3ccc(OC)c(OC)c3)n2)c1

row,melting point,SMILES
1,97 to 99 °C,O=[N+]([O-])c1cnn(-c2c(Cl)cc(C(F)(F)F)c(Cl)c2Cl)c1Br
2,54 to 57 °C,CSCC(=O)N(C)C(C)=Nc1cn(-c2cccnc2)nc1C
3,68 to 70 °C,OCCOc1ccc2ncccc2c1
4,178 °C,CCOCCn1c(NC2CCN(C(=O)c3cc(C(F)(F)F)cc(C(F)(F)F)c3)C(Cc3ccccc3)C2)nc2ccccc21 (centres undefined)
5,169 to 170 °C,Cn1ncnc1COc1nn2c(-c3cccc(F)c3)nncc2c1-c1ccccc1F
6,180 to 182 °C,CCCNC(=S)NC1=Nc2ccc(OC(F)(F)F)cc2SC1
7,148 to 160 °C,CC(=O)CCCCC(=O)Nc1ccc(CCC(=O)O)cc1
8,195 to 196 °C,CC(C)(C)NCC(O)COc1ccc2nc(S(N)(=O)=O)sc2c1 (centres undefined)
9,50 to 52 °C,CCN(CC)CCNC(C(=O)NC(C)(C)C)c1ccccc1 (centres undefined)
10,101 to 103 °C,CC(C(=O)N(C)C)n1nc(-c2ccccc2)c2c1CCCC2 (centres undefined)
11,106 °C,COc1c(C)cc2c(c1C)C[C@@H]1c3cc(C(C)C)ccc3N[C@H]21 (relative stereo)
12,68.5 to 77 °C,Cc1cc(C2(C(F)(F)F)CC(c3ccc(S(C)=O)cc3)=NO2)ccc1N (centres undefined)
13,180 to 181 °C,Cn1c(C(F)(F)F)ccc(-c2cc(C#N)c(Cl)cc2F)c1=O
14,125 to 128 °C,CC(C)(C)OC(=O)Nc1cn(-c2cccnc2)nc1Cl
15,163 to 165 °C,O=C1C2CC3CC1CC(c1cc(Br)ccc1OCc1ccccc1)(C3)C2
16,127 to 128 °C,COc1cc(C#Cc2cc(OC)c(OC(C)C)cc2OC(=O)CI)ccc1OC(C)C
17,128 to 131 °C,CCCC(C(C)=CC(CNC(=O)c1cccnc1)=NO)[N+](=O)[O-] (centres undefined)
18,156 to 157 °C,Cc1ccccc1-c1nc(-c2ccccc2Cl)sc1-c1ccc(S(C)(=O)=O)cc1
19,> 280 °C,O=C(O)C=Cc1ccc(Oc2nsnc(Cl)c2=O)cc1
20,133 to 134 °C,CC(C(=O)C(O)C1OC(n2cc(F)c(=O)[nH]c2=O)C(O)C1O)c1ccccc1 (mixture of isomers)
21,208 °C,CCCNc1ccc(C(=O)O)cc1[N+](=O)[O-]
22,122 to 123 °C,Nc1ccn(-c2ccc(Br)cc2)n1
23,138 to 140 °C,CC(C)n1cc(-c2nn(-c3cccc(C(F)(F)F)c3)ccc2=O)c(-c2ccccc2)n1

row,SMILES,melting point
1,CNC(=S)N(Cc1ccc(Cl)nc1)CC(F)(F)F,98 to 100 °C
2,CCOC(=O)c1ncn2c1[C@@H]1CCCN1C(=O)c1c(Cl)cccc1-2,182 to 184 °C
3,Clc1c2c(nc3ccccc13)CCCNC2,127 °C
4,Cc1c[nH]c2cccc(C3CCCNC3)c12 (centres undefined),150 °C
